Source: patent US12172966B1, “2-(1H-imidazole-1-carbonyl)benzoic acid as an anticancer compound” (KING FAISAL UNIVERSITY, priority 2023, dated 2024)

Tests used:
[1] = tested on: human osteosarcoma cells (MG-63); assay: Assessment of cytotoxicity by SRB assay, osteosarcoma cells; type: cell-based; conditions: for IC50: mean±SD
Excerpt: (§1) The anticancer activity of the described synthesized compounds against highly aggressive androgen-independent metastatic human prostate cancer cells (PC3) and osteosarcoma (MG-63) cells. The human prostate cancer cells (PC3) and human osteosarcoma cells (MG-63) were obtained from Nawah Scientific Inc. (Mokatam, Cairo, Egypt) and cultured in DMEM (Dulbecco's modified eagle's medium), Gibco, USA, supplemented with fetal bovine serum (FBS) at a concentration of 10% and 100 U/mL of penicillin and streptomycin (PS). The Cells were incubated at 37° C. in a humidified environment that contained 5% CO2.
(§2) Cells were seeded in 96-well plates as aliquots of 100 μL cell suspension and incubated in a complete media for 24 h. afterward, cells were treated with 2-(1H-imidazole-1-carbonyl)benzoic acid at diverse concentrations ranging from 0.01 μM to 100 μM for 72 h. Then, cells were fixed at 4° C. for one hour with 150 μL of 10% trichloroacetic acid (TCA). After washing the cells five times with distilled water, […] of sulforhodamine (SRB) solution (0.4% w/v) was added and incubated for 10 min at room temperature in a dark place. Cells were washed with 1% acetic acid three times and allowed to air-dry. Then, 150 μL of Tris pH 10.5 (10 mM) was added, and the absorbance was measured at 540 nm using a BMG LABTECH®—FLUOstar Omega microplate reader (Ortenberg, Germany). Half maximal inhibitory concentrations (IC50) values were calculated for each experiment using GraphPad Prism 6 software. IC50 values were reported as mean±SD.
(§3) The inhibition was calculated using the following equation: Inhibition %=100−Average Viability

[2] = tested on: human prostate cancer cells (PC3); assay: Assessment of cytotoxicity by SRB assay, prostate cancer cells; type: cell-based; conditions: for IC50: mean±SD
Excerpt: as §1, §2, §3

[3] = Homo sapiens, MG-63 cells, 72 h

Structure (SMILES)	inhibition at 10 µg/mL ([1]; Homo sapiens, MG-63 cells, 10 μg/ml, 72 h) [%]	inhibition at 100 µg/mL ([1]; Homo sapiens, MG-63 cells, 100 μg/ml, 72 h) [%]	IC50 [1, 3] [µM]	IC50 values, osteosarcoma cell line ([1]; MG-63 cells, bound stated in text for both cell lines) [µM]	antiproliferative activities against osteosarcoma (MG-63) cells ([1]; result in words)	inhibition at 10 µg/mL ([2]; Homo sapiens, PC-3, 72 h, PC-3 cells, 10 μg/ml, 72 h) [%]	IC50 ([2]; Homo sapiens, PC-3 cells, 72 h) [µM]	Prostate cancer (PC-3) Inhibition % ([2]; PC-3 cells, 10 μg/ml, 72 h) [%]	IC50 values, prostate cancer cell line ([2]; PC-3 cells, bound stated in text for both cell lines) [µM]	antiproliferative activities against cancer cells (PC3) ([2]; result in words)
O=C(O)c1ccccc1C(=O)n1ccnc1 [2-(1H-imidazole-1-carbonyl)benzoic acid]	88.9	90.9	3.55 ± 0.2	< 4	excellent antiproliferative activities	93	2.67 ± 0.03	93.44	< 4	excellent antiproliferative activities
COc1cccc2c1C(=O)c1c(O)c3c(c(O)c1C2=O)C[C@@](O)(C(=O)CO)C[C@@H]3O[C@H]1C[C@H](N)[C@H](O)[C@H](C)O1 [DOX, Doxorubicin, reference compound]			9.3 ± 1.1				7.5 ± 0.45			
